The results in this text go back to patent publication US9549905B2, “Treatment of inflammatory and infectious skin disorders” (The Regents of the University of California, priority 2011, dated 2017).

“And” between values parts separate entries of the source, which are not always exact repeats. Identical values can stand only once.

In data set [1] the test system is Propionibacterium acnes ATCC strain 6919. The data set is described as follows: Colony Forming Unit (CFU) assay of P. acnes over 10 days. It counts as cell-based. Conditions: for bactericidal activity in comparison at equal concentration: 75 μg/mL, FIG. 2D; for antimicrobial activity over time (words): CFU assay, irrespective of concentration. Here is the method:
FIG. 2A. […] Bacterial growth was assessed in terms of the growth factor of P. acnes (Y-axis), determined by the change in the number of bacteria compared to baseline control (set at 1 on Day 0). Concentrations were obtained over a 10-day period and plotted logarithmically. FIG. 2B. Colony Forming Unit (CFU) assays of P. acnes incubated with Benzoyl Peroxide (BPO). FIG. 2C. […] FIG. 2D. […] Having described the invention in general terms, the following specific example is offered for purpose of illustration and for illustration only, and no intention to limit the invention is to be inferred there from. […] Resveratrol and benzoyl peroxide were obtained from Sigma-Aldrich St. Louis, Mo. […] Propionibacterium acnes ATCC […] strain 6919 was grown anaerobically at 37° C. in Reinforced Clostridial Media (Oxoid) for 3 days and collected in the exponential phase of growth by centrifugation. Bacteria were washed with pH 7 sodium phosphate buffer supplemented by 0.03% Trypticase Soy Media and quantified by reading with a spectrophotometer at 600 nm and applying a conversion of ˜1×10^8 bacteria=1 absorbance unit. […] Samples were incubated anaerobically at 37° C. for intervals of 1, 2, 3, 7, and 10 days and then plated on brucella agar with 5% sheep blood supplemented with hemin and vitamin K (Remel). […] The results were plotted logarithmically as multiples of the initial concentration, which was designated as 1 at Day 0.

In data set [2] the test system is IL-12 secretion by primary human monocytes. The experiment in a line: Cytokine IL-12 assay in monocytes stimulated with P. acnes sonicate. Format: cell-based. Conditions: compared with 1% DMSO / untreated. An excerpt: FIG. 3A. Cytokine IL-12 Assay.
The anti-inflammatory properties of resveratrol, benzoyl peroxide and the combination of resveratrol and benzoyl peroxide are exemplified by the cytokine IL-12 assay. […] To address this, we next investigated the cytotoxic effects of the various treatment groups.
To address this, we next investigated the cytotoxic effects of the various treatment groups.

The subject of a further data set is primary human monocytes. The experiment in a line: MTS cytotoxicity assay. Format: cell-based. Conditions: for monocytes killed: 10 μg/mL. The procedure:
FIG. 3B. Cytotoxicity Assay. […] The percentage of cells still viable after 16 hour incubation (compared to 1% DMSO control) were assessed (Y-axis) by measuring absorbance of the sample, which is proportional to the number of viable cells.
The cytotoxicity of resveratrol, benzoyl peroxide, and the combination of resveratrol and benzoyl peroxide was also assessed. (see FIG. 3B) We analyzed the cell viability of human monocytes using the MTS cytotoxicity assay. […] The direct cell cytotoxicity of benzoyl peroxide may explain the decrease in IL-12 activity, more a result of direct cell death, than actual anti-inflammatory properties of benzoyl peroxide.
We analyzed the cell viability of human monocytes using the MTS cytotoxicity assay.

Data set [3] relates to P. acnes. The experiment in a line: Transmission electron microscopy of P. acnes. Format: cell-based, Propionibacterium acnes. Conditions: 1 mg/mL, 24 hours. An excerpt:
FIG. 4A. Electron Microscopy of P. acnes control without stimulus. […] Samples were visualized at 80 kV on a JEOL 100CX electron microscope. Bacteria were magnified according to the scale indicated below the main image, with higher magnification images located in the lower left inset.
This implies cellular lysis and death of the majority of bacterium, leaving only remaining unaffected bacteria to replicate and grow.
Resveratrol induced structural changes in the cell membrane of P. acnes. […] This implies cellular lysis and death of the majority of bacterium, leaving only remaining unaffected bacteria to replicate and grow.

The subject of data set [4] is P. acnes. The data set is described as follows: P. acnes growth inhibition, 48 hour incubation and plating at different dilutions. It counts as cell-based, Propionibacterium acnes. The procedure:
Serial dilutions of P. acnes plated without treatment provided qualitative comparisons to experimental groups treated with RES. Significant growth inhibition of P. acnes was first noted at 50 μg/mL and was dose dependent. […] (FIG. 2A).

For `O=C(OOC(=O)c1ccccc1)c1ccccc1` [BPO, Benzoyl Peroxide], the “fold more bactericidal than RES” value in data set [1] (50 μg/mL, at 24 hours) is reported as ~1000 ×. In addition, the “bactericidal activity in comparison at equal concentration” value in data set [1] (10-day period) is reported as “short but immediate bactericidal activity”. Also, the “antimicrobial activity over time (words)” value in data set [1] is reported as “minimal effect on bacterial growth after 24 hours”; in data set [1] (listed as benzoyl peroxide), “virtually no activity remaining after 48 hours”. Moreover, in data set [1] (data not shown), the “lowest dose with bactericidal activity” value turned out to be 25 µg/mL. In data set [2], the “concentration from which IL-12 secretion was diminished” value was ≥ 2.5 µg/mL. Besides, the monocytes killed result with primary human monocytes (16 hour incubation, relative to 1% DMSO control) is listed as “greater than 90%”. Further, in the data set with primary human monocytes (human, 16 h), the “lowest concentration toxic to monocytes” value worked out at 5 µg/mL. The “structural changes of P. acnes” value in the data set with P. acnes [3] was “structurally identical to control”.
For the molecule `Oc1ccc(C=Cc2cc(O)cc(O)c2)cc1` [RES, 3,5,4′-trihydroxystilbene], the “bactericidal activity in comparison at equal concentration” value in data set [1] (10-day period) is listed as “slow but sustained bactericidal activity”. In addition, in data set [1] (10-day period, FIG. 2A), the “concentrations with sustained and dose dependent bactericidal effect” value is 75 µg/mL and 100 µg/mL. For the same molecule, in data set [1], the “antimicrobial activity over time (words)” value is on record as “slow but sustained antimicrobial response”. In addition, in the data set with P. acnes [4] (50 μg/mL, 48 hours), the “growth equivalent to dilution of untreated P. acnes plates” value is given as ~1000 × dilution. For the same molecule, the “concentration at which significant growth inhibition of P. acnes was first noted” value with P. acnes [4] (48 hours incubation, about 1.33×10^6 bacteria) is 50 µg/mL. Moreover, the “concentration from which IL-12 secretion was diminished” value in data set [2] is ≥ 10 µg/mL. Besides, the monocytes killed result in the data set with primary human monocytes (human, 16 h) was “approximately 35%”. The “structural changes of P. acnes” value with P. acnes [3] is “loss of membrane definition due to intramembranous edema and loss of well defined extracellular fimbrial structures”.
